Experiments:
[1] = system: normal human cholangiocytes (NHC3); experiment: Primary cilium length (cilium staining, confocal microscopy), normal cells; format: cell-based; conditions: after treatment
Method: (§1) Cilium staining. Cells cultured on cover slips were washed with PBS, fixed with methanol, and blocked for one hour in a blocking buffer at room temperature. The γ-tubulin primary antibodies (1:100; Sigma-Aldrich, St Louis, MO) and acetylated α-tubulin primary antibodies (1:1000; Sigma-Aldrich) or IFT88 primary antibodies (1:100; ProteinTech, Rosemont, IL, USA) were incubated overnight at 4° C. After washing, Alexa Fluor 594 and 488 secondary antibodies were combined with the primary antibodies (Life Technologies, Carlsbad, CA, USA) and incubated for 2 hours at room temperature. The cover slips were placed on slides with Prolong Gold Antifade with Dapi (Invitrogen, Carlsbad, CA, USA). The slides were observed and images were taken using laser scanning confocal microscopy with a 60× objective (NIKON C1si Confocal Spectral Imaging System, NIKON Instruments Co., Melville, NY, USA). The field was magnified 4× to observe individual cilia. The images were opened with EZ-C1 3.90 Freeviewer and a scale bar was added. The images were converted to Tiff files and quantified using ImageJ Software. The scale bar saved in the image was measured and the scale established. Using the freehand tool, the cilia were traced and measurements taken.

PCK rats = experiment: Chronic treatment of PCK rats (animal model of PLD), liver transaminase ALT; format: in vivo, rat; conditions: 7 mg/kg/day, 2 months
Method: PCK rats were chronically treated (2 months) with compound Ia (7 mg/kg/day).

[2] = system: polycystic human cholangiocytes; experiment: CFSE proliferation protocol by flow cytometry; format: cell-based
Method: The proliferation of polycystic human cholangiocytes at 48 hours in the absence or presence of different doses of compound Ia (10, 50, 100, μM) in a quiescence culture medium was analyzed. To that end, the CFSE proliferation protocol (Invitrogen) was used using flow cytometry.

ASBT = molecular target: T1, ASBT (Homo sapiens, UniProt Q12908); experiment: Uptake study, transporter ASBT (data not shown); format: in vitro ADME
T1 construct: expressed in transfected cells
T1 sequence (Q12908 1-348): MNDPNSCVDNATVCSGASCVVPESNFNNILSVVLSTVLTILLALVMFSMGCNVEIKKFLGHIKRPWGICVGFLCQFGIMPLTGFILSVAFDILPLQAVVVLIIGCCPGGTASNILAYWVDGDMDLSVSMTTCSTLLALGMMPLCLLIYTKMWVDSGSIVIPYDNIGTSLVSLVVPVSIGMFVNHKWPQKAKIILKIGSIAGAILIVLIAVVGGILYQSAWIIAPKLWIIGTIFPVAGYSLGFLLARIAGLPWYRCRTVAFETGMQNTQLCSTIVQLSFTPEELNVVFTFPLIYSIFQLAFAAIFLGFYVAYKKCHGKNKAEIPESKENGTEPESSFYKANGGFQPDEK
Source text: The bile acid and organic cation transporters expressed in hepatocytes and cholangiocytes were overexpressed in HepG2 cells (OCT1) and CHO cells (OCT3). The efficacy of the process was confirmed by means of measuring the abundance of mRNA (qPCR), protein (WB), and the correct insertion in the plasma membrane (immunofluorescence). The uptake studies included comparing the uptake efficiency of the compound with respect to dihydroethidium (DHE) in the case of OCT3, and sorafenib in the case of OCT1 (positive controls), as well as the sensitivity of the process to substrate inhibition induced by the joint administration of the compound and quinine. The cell content of all the compounds was determined by means of triple quadrupole HPLC-MS/MS after extraction thereof from the cell system used in each case.

[3] = system: polycystic human cholangiocytes; experiment: Primary cilium length (cilium staining, confocal microscopy), polycystic cells; format: cell-based; conditions: after treatment
Method: as §1

human HDAC4 = molecular target: T2, human HDAC4 (Homo sapiens, UniProt P56524); experiment: HDAC4 enzymatic activity assay (fluorogenic peptide); format: biochemical; conditions: 10-dose, 3-fold serial dilution, triplicate
T2 construct: amino acids 627-1085 with GST N-terminal tag, MW=75.2 kDa; GST (N); purchased BioMol, Hamburg, Germany; host or cells: baculovirus expression system
T2 sequence (P56524 627-1084 limits assumed): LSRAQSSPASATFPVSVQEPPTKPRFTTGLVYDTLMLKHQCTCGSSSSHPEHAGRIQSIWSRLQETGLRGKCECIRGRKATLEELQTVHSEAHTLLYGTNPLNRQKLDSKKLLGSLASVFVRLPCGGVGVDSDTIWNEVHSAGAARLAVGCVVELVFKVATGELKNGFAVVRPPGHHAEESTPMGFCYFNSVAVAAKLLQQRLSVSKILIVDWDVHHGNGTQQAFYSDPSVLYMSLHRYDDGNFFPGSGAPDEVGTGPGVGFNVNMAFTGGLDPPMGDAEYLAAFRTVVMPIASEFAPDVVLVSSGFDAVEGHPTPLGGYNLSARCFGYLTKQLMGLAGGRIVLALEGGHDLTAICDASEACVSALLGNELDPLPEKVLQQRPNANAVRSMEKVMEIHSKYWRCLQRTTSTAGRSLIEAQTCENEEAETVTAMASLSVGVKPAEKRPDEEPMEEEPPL
Method: (§2) Peptide substrates: all HDAC assays were performed using acetylated peptide substrates labeled with 7-amino-4-methylcoumarin (AMC): • Substrate for isoforms HDAC1, 2, 3, 6, 10, 11, and HeLa nuclear extract assays: acetylated fluorogenic peptide from p53 residues 379-382 (RHKKAc). • Substrate for isoforms HDAC4, 5, 7, 9: fluorogenic Boc-L-Lys (s-trifluoroacetyl)-AMC. • Substrate for HDAC8 assays: acetylated fluorogenic peptide from p53 residues 379-382 (RHKAcKAc).
(§3) 50 μl of peptide substrate (see “peptide substrates” section above) and an optimal concentration of the corresponding enzyme (see “enzymes” section above) in the assay buffer at a final DMSO concentration of 1% were incubated in the presence of gradient concentrations of inhibitors (10-dose IC50 mode with 3-fold serial dilution) at 30° C. for 2 hours. The reactions were carried out in a 96-well microplate for fluorometry in a 50 μl reaction volume. After the deacetylation reaction, Fluor-de-Lys-Developer (BioMol Cat. #KI-105) was added to each well to digest the deacetylated substrate, thereby producing the fluorescent signal. The reaction was carried out for 45 minutes at 30° C. with 5% CO2; the fluorescent signal was then measured using an excitation wavelength of 360 nm and an emission wavelength of 460 nm in a microplate-reading fluorometer (GeminiXS, Molecular Devices, Sunnyvale, CA). […]

human HDAC5 = molecular target: T3, human HDAC5 (Homo sapiens, UniProt Q9UQL6); experiment: HDAC5 enzymatic activity assay (fluorogenic peptide); format: biochemical; conditions: 10-dose, 3-fold serial dilution, triplicate
T3 construct: GST (N); purchased BioMol, Hamburg, Germany; host or cells: baculovirus / Sf9 cells
T3 sequence (Q9UQL6 1-1123 isoform Q9UQL6-3): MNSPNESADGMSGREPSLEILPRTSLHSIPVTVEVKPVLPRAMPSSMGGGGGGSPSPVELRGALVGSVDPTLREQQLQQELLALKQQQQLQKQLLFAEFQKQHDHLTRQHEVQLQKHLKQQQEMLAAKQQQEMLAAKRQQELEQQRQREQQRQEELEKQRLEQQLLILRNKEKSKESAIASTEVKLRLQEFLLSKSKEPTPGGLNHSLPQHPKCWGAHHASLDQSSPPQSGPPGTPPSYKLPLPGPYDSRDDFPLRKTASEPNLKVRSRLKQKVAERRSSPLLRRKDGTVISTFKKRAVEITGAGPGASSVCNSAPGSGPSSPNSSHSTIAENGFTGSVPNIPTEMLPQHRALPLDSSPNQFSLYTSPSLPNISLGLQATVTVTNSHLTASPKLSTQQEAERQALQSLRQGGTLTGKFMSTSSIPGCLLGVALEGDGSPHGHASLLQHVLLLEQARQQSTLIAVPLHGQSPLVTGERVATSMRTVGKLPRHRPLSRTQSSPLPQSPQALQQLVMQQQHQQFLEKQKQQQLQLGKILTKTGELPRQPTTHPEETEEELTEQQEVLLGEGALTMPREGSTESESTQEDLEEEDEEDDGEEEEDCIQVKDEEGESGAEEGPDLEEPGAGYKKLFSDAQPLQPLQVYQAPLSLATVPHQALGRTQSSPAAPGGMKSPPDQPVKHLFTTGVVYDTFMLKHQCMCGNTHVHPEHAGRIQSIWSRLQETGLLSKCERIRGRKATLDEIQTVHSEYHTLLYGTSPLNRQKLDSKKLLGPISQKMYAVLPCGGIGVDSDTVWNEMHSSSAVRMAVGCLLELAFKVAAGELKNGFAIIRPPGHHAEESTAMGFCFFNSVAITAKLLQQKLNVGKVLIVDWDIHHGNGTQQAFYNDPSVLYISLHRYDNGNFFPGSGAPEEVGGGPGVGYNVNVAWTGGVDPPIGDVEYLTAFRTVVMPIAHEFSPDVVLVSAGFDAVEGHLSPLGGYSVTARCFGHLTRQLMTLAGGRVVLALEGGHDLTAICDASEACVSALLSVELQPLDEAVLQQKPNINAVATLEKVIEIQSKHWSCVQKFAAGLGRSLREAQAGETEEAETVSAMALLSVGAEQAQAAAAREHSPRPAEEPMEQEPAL
Method: as §2, §3

For C[C@H](CCC(=O)NCc1ccc(C(=O)NO)cc1)[C@H]1CC[C@H]2[C@@H]3[C@@H](O)C[C@@H]4C[C@H](O)CC[C@]4(C)[C@H]3CC[C@]12C [Compound Ia], the “length of the cilia, normal human cholangiocytes” value [1] was “did not lead to any significant variations”, the “levels of liver transaminase ALT” value (PCK rats) was “significantly reduced” and the “proliferation of polycystic human cholangiocytes” value ([2]; 48 hours, 10, 50, 100 μM, quiescence culture medium) was “inhibits the hyper-proliferation of polycystic human cholangiocytes in vitro in a dose-dependent manner”. For the same compound, the “inhibition of proliferation compared with UDCA” value ([2]; 48 hours, UDCA at 100 μM) was “with a higher intensity than UDCA”, the “transport through ASBT” value (ASBT) was “not through ASBT” and the “length of the cilia, polycystic human cholangiocytes” value [3] was “significantly increased”. For the same compound, the IC50 (human HDAC4) was 16.5 µM and the IC50 (human HDAC5) was 14.1 µM.

From patent publication US11833160B2, “Ursodeoxycholic acid derivatives as HDAC inhibitors for the treatment of polycystic diseases” (UNIVERSIDAD DEL PAIS VASCO/EUSKAL HERRIKO UNIBERTSITATEA, priority 2017, dated 2023)
